# Patent publication US20180078655A1, “IMMUNOCONJUGATES FOR SPECIFIC INDUCTION OF T CELL CYTOTOXICITY AGAINST A TARGET CELL” (priority 2015, published 2018)
# Test system: A-375, PC-3, HCT-116 tumor cell lines
# Assay: LDH release assay and xCELLigence, FLU peptide immunoconjugate
# Type: cell-based, human
# Settings: xCELLigence, 6, 10 and 18 hours
sequence,measurement,value
CTELKLSDY [free peptide],tumor cell killing over the course of time,usually decreased in higher incubation times
